# Measurements published in EP4603105A1, “PHARMACEUTICAL COMPOSITION CONTAINING CYCLIC COMPOUND HAVING SELECTIVE KRAS INHIBITORY EFFECT AGAINST HRAS AND NRAS” (CHUGAI SEIYAKU KABUSHIKI KAISHA, priority 2022, dated 2024).
# Like-named read-outs stand apart in the source and are kept apart here.
# What was measured:
# [1] = molecular target: GDP-bound KRAS wild-type protein (Homo sapiens, UniProt P01116); assay: Binding to KRAS by surface plasmon resonance (SPR), dissociation constant KD
# How it was run: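 Compound binding is evaluated by SPR single-cycle kinetics, with concentrations added intermittently from low to high for 75 s each. Target surfaces carry GDP-loaded biotinylated Avi-RAS at about 100–300 RU, regenerated after each cycle; temperature 30°C. A 1:1 binding model gives KD.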
# [2] = tested on: human lung cancer strain NCI-H441; assay: NCI-H441 cell proliferation inhibitory activity (CellTiter-Glo, 4 days); format: cell-based; details: read-out: NCl-H441 IC50
# How it was run: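 Step one: dispense the test compound in serial DMSO dilutions. Step three: add the reagent and measure […].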
# [3] = molecular target: GDP-bound NRAS wild-type protein (Homo sapiens, UniProt P01111); assay: Binding to NRAS by surface plasmon resonance (SPR), KD and KD ratio to KRAS
# How it was run: (§1)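 Running buffer contained 10 µM GDP and 10 mM MgCl2 to keep RAS in the GDP state, with 4% DMSO at pH 7.4. Compounds were flowed at 100 µL/min in 75 s steps of rising concentration over captured biotin-Avi RAS at 30°C. Sensorgrams were fitted 1:1 for KD.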
# HRAS wild-type protein = HRAS wild-type protein (Homo sapiens, UniProt P01112); assay: Binding to HRAS by surface plasmon resonance (SPR), KD and KD ratio to KRAS
# How it was run: as §1
# [4] = ratio of KD for GDP-bound NRAS wild-type protein to KD for KRAS
# [5] = ratio of KD for HRAS wild-type protein to KD for KRAS
# Sequence of GDP-bound KRAS wild-type protein (P01116 1-188 isoform P01116-2): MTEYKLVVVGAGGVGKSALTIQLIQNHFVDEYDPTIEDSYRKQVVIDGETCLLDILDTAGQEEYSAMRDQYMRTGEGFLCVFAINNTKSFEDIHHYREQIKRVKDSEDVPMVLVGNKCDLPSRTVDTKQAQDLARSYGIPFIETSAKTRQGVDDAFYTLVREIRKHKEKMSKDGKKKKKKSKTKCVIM
# Sequence of GDP-bound NRAS wild-type protein (P01111 whole entry): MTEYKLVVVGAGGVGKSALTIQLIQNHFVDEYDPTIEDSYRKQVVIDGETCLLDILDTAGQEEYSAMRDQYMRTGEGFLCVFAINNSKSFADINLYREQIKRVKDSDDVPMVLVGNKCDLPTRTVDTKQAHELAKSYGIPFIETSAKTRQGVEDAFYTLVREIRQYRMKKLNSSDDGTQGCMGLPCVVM
# Sequence of HRAS wild-type protein (P01112 whole entry): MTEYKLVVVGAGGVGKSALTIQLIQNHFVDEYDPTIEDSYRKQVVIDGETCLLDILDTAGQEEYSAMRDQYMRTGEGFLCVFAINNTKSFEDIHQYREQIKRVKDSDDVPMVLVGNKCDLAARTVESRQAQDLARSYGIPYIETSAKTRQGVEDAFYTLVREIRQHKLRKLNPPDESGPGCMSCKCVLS
SMILES,Kd ([1]; 1:1 binding model),"IC50 ([2]; NCI-H441 cells, 4 days)","NRAS /KRAS [3, 4]",HRAS /KRAS (HRAS wild-type protein; [5]),Kd ([1]; Single Cycle Kinetics),"Kd ([1]; Single Cycle Kinetics, 1:1 binding model)","IC50 ([2]; 50% proliferation inhibitory concentration, four days)",NRAS /KRAS ([3]; ratio of KD with respect to GDP-bound NRAS wild-type protein to KD with respect to KRAS),HRAS /KRAS (HRAS wild-type protein; ratio of KD with respect to HRAS wild-type protein to KD with respect to KRAS)
CCC[C@H]1C(=O)N[C@@H]([C@@H](C)CC)C(=O)N(C2CC2)CC(=O)N(C)[C@H]2C/C=C\CCN(C2=O)[C@@H](CC2CCC(F)(F)CC2)C(=O)N(C)CC(=O)N[C@@H](CCc2cc(F)c(C(F)(F)F)c(F)c2)C(=O)N2C[C@H](OCC)C[C@H]2C(=O)NC2(CC(C)(C)C2)C(=O)N(C)[C@@H](C2CCCC2)C(=O)N(C)[C@H](C(=O)N(C)C)CC(=O)N1C [PP2566],0.57 nM,17.6 nM,A (a compound having 10 or more and less than 20 is denoted as A),B (a compound having 3 or more and less than 10 is denoted as B),–,–,–,–,–
CCOC[C@H]1C(=O)N[C@@H]([C@@H](C)CC)C(=O)N2CCC[C@H]2C(=O)N(C)[C@H]2C/C=C\CCN(C2=O)[C@@H](Cc2ccc(C(F)(F)F)cc2)C(=O)N(C)CC(=O)N[C@@H](CCc2ccc(C(F)(F)F)c(OC)c2)C(=O)N2C[C@@H](C)C[C@H]2C(=O)N(C)C2(CCC2)C(=O)N(C)[C@@H](C2CCCC2)C(=O)N(C)[C@H](C(=O)N(C)C)CC(=O)N1C [PP2363],0.062 nM,7.5 nM,A (a compound having 10 or more and less than 20 is denoted as A),B (a compound having 3 or more and less than 10 is denoted as B),–,–,–,–,–
CCC[C@H]1C(=O)N[C@@H]([C@@H](C)CC)C(=O)N(C)CC(=O)N(C)[C@H]2C/C=C\CCN(C2=O)[C@@H](Cc2ccc(C(F)(F)F)cc2)C(=O)N(C)CC(=O)N[C@@H](CCc2cc(F)c(C(F)(F)F)c(F)c2)C(=O)N2CC3(CC3)C[C@H]2C(=O)NC2(CCC2)C(=O)N(C)[C@@H]([C@@H](C)CC)C(=O)N(C)[C@H](C(=O)N(C)C)CC(=O)N1C [PP3404],–,12.8 nM,AA (a compound having 20 or more is denoted as AA),A (a compound having 10 or more and less than 20 is denoted as A),0.2 nM,–,–,–,–
C=C(C)C[C@H]1C(=O)N(C)[C@H](C(=O)N(C)C)CC(=O)N(C)[C@@H](CC(C)C)C(=O)N[C@@H]([C@@H](C)CC)C(=O)N(C)CC(=O)N(C)[C@H]2C/C=C\CCN(C2=O)[C@@H](Cc2ccc(C)cc2)C(=O)N(C)CC(=O)N[C@@H](CCc2cc(F)c(C(F)(F)F)c(F)c2)C(=O)N2C[C@H](OCC)C[C@H]2C(=O)N(C)C2(CCC2)C(=O)N1C [PP3349],–,15.7 nM,A (a compound having 10 or more and less than 20 is denoted as A),A (a compound having 10 or more and less than 20 is denoted as A),1.7 nM,–,–,–,–
C#CC[C@H]1C(=O)N[C@@H]([C@@H](C)CC)C(=O)N2CCC[C@H]2C(=O)N(C)[C@H]2C/C=C\CCN(C2=O)[C@@H](Cc2ccc(C)cc2)C(=O)N(C)CC(=O)N[C@@H](CCc2cc(F)c(C(F)(F)F)c(F)c2)C(=O)N2C[C@H](OCC)C[C@H]2C(=O)N(C)C2(CCC2)C(=O)N(C)[C@@H](C2CCCC2)C(=O)N(C)[C@H](C(=O)N(C)C)CC(=O)N1C [PP3256],–,4.2 nM,A (a compound having 10 or more and less than 20 is denoted as A),A (a compound having 10 or more and less than 20 is denoted as A),0.078 nM,–,–,–,–
C#CC[C@H]1C(=O)N[C@@H]([C@@H](C)CC)C(=O)N(C)CC(=O)N(C)[C@H]2CC[C@@H](C)CN(C2=O)[C@@H](Cc2ccc(C(F)(F)F)cc2)C(=O)N(C)CC(=O)N[C@@H](CCc2ccc(C(F)(F)F)c(Cl)c2)C(=O)N2CCC[C@H]2C(=O)NC2(CCCC2)C(=O)N(C)[C@@H](C2CCCC2)C(=O)N(C)[C@H](C(=O)N(C)C)CC(=O)N1C [PP1340],–,–,–,–,–,0.081 nM,10.9 nM,B (a compound having 3 or more and less than 10 is denoted as B),B (a compound having 3 or more and less than 10 is denoted as B)
